Source: patent US20210038753A1, “BIOLOGICAL STERILIZATION INDICATOR WITH STERILANT RESISTANCE MODULATOR” (3M INNOVATIVE PROPERTIES COMPANY, priority 2014, published 2021)

How the values were obtained:
[1] = system: Geobacillus stearothermophilus spores; test: Resistance of self-contained biological indicators to hydrogen peroxide sterilization, growth readout by pH colour change (GRO+); type: cell-based
Method: (§1) PET film (.09 mm thick) was coated with colloidal silica as described in International Publication No. WO2014/189716, which is incorporated herein by reference in its entirety. […] Separate aqueous spore coating solutions were prepared as described in Example 1 with the amino acids shown in table 4 present in the coating solutions. Two microliter aliquots (containing at least 10^6 spores) of the respective spore coating solutions were deposited onto the silica-coated PET film, forming a series of spaced-apart spots on the film. The spore coated films were dried in a 60° C. incubator for 12 minutes. Circular discs (hereinafter, “coated carriers”) of the PET film, each disc including one of the dried spots, were punched out and were used to assemble self-contained biological indicators (BI) similar to that shown in FIG. 1 of International Publication No. WO2014/189716. The coated carriers described above were placed into the “spore carrier 135” shown in FIG. 1 of International Publication No. WO2014/189716. Each self-contained BI comprised a polycarbonate outer container, a breaker, a cap, and a cap filter. Disposed inside the outer container were a coated carrier along with an ampoule media containing the nutrient medium from 3M ATTEST 1292 Rapid Readout Biological Indicators plus 5g/L methionine (as described in Example 1).
(§2) The self-contained biological indicators with different concentrations of additives (Table 4) were exposed to hydrogen peroxide sterilization in STERRAD NX sterilizer. The sterilization processes were run by manually injecting 1.0 ml of 59% hydrogen peroxide per load, unless specified otherwise. The exposure time was varied to determine the resistance profile of self-contained BIs with different additive formulations. The BIs were activated by pressing down the cap to break the media ampoule. The activated BIs were placed in a bench-top fluorimeter (3M Company, St. Paul, Minn.) to detect fluorescence.
(§3) A self-contained BI that is not completely inactivated (i.e., not all of the spores are killed by the sterilization process) will resume cellular functions upon activation of the BI. The production of glucosidase enzyme by surviving spores is an indication that at least one of the spores have not been inactivated (killed) by the sterilization process. The glucosidase enzyme cleaves the 4-methylumbelliferyl-glucoside (MUG) releasing the fluorescent methyl umbelliferone, which is detected using a bench-top fluorimeter. Growth and proliferation of spores in the self-contained biological indicator can also be detected by a pH change, which may be detected by a color change of the pH indicator in the growth medium.
(§4) Self-contained biological indicators were prepared (with various additives listed in table 4) as described above in this Example. For each additive tested, a lower range and a higher range was used as a preliminary screen to identify additives modulated the resistance of the spores to the sterilant. Five self-contained BIs representing each condition were exposed to hydrogen peroxide sterilization in STERRAD NX sterilizer. The sterilization processes used a constant injection volume (1.0 ml of 59% hydrogen peroxide) and various times (e.g., 20 seconds to 7 minutes) of exposure to the hydrogen peroxide. The self-contained BIs were activated after exposure to the sterilization process and were monitored for fluorescence using a bench-top fluorimeter) and pH based color change (visually). […]
(§5) Self-contained biological indicators (with various additives listed in table 5) were prepared as described in Example 2. The self-contained biological indicators were exposed to hydrogen peroxide in a STERRAD NX sterilizer as described in Example 2. The self-contained BIs were activated after exposure to the sterilization process and were monitored for fluorescence using a bench-top fluorimeter and pH based color change (visually).

[2] = system: Geobacillus stearothermophilus spores; test: Resistance of self-contained biological indicators to hydrogen peroxide sterilization, glucosidase enzyme activity fluorescence readout (ENZ+); type: cell-based
Method: as §1, §2, §3, §4, §5

[3] = Table 4, modulator 0.01 weight percent in spore coating solution, H2O2 exposure 30 sec.
[4] = Table 4, modulator 0.01 weight percent in spore coating solution, H2O2 exposure 60 sec.
[5] = Table 4, modulator 0.01 weight percent in spore coating solution, H2O2 exposure 90 sec.
[6] = Table 4, modulator 0.01 weight percent in spore coating solution, H2O2 exposure 3 min.
[7] = Table 4, modulator 0.01 weight percent in spore coating solution, H2O2 exposure 7 min.
[8] = Table 4, modulator 0.1 weight percent in spore coating solution, H2O2 exposure 30 sec.
[9] = Table 4, modulator 0.1 weight percent in spore coating solution, H2O2 exposure 60 sec.
[10] = Table 4, modulator 0.1 weight percent in spore coating solution, H2O2 exposure 90 sec.
[11] = Table 4, modulator 0.1 weight percent in spore coating solution, H2O2 exposure 3 min.
[12] = Table 4, modulator 0.1 weight percent in spore coating solution, H2O2 exposure 7 min.
[13] = Table 5, modulator 0.05 weight percent in spore coating solution, H2O2 exposure 20 sec.
[14] = Table 5, modulator 0.05 weight percent in spore coating solution, H2O2 exposure 30 sec.
[15] = Table 5, modulator 0.05 weight percent in spore coating solution, H2O2 exposure 60 sec.
[16] = Table 5, modulator 0.05 weight percent in spore coating solution, H2O2 exposure 90 sec.
[17] = Table 5, modulator 0.05 weight percent in spore coating solution, H2O2 exposure 3 min.
[18] = Table 5, modulator 0.05 weight percent in spore coating solution, H2O2 exposure 7 min.
[19] = Table 5, modulator 0.1 weight percent in spore coating solution, H2O2 exposure 20 sec.
[20] = Table 5, modulator 0.1 weight percent in spore coating solution, H2O2 exposure 30 sec.
[21] = Table 5, modulator 0.1 weight percent in spore coating solution, H2O2 exposure 60 sec.
[22] = Table 5, modulator 0.1 weight percent in spore coating solution, H2O2 exposure 90 sec.
[23] = Table 5, modulator 0.1 weight percent in spore coating solution, H2O2 exposure 3 min.
[24] = Table 5, modulator 0.1 weight percent in spore coating solution, H2O2 exposure 7 min.
[25] = Table 5, modulator 0.2 weight percent in spore coating solution, H2O2 exposure 20 sec.
[26] = Table 5, modulator 0.2 weight percent in spore coating solution, H2O2 exposure 30 sec.
[27] = Table 5, modulator 0.2 weight percent in spore coating solution, H2O2 exposure 60 sec.
[28] = Table 5, modulator 0.2 weight percent in spore coating solution, H2O2 exposure 90 sec.
[29] = Table 5, modulator 0.2 weight percent in spore coating solution, H2O2 exposure 3 min.
[30] = Table 5, modulator 0.2 weight percent in spore coating solution, H2O2 exposure 7 min.
[31] = Table 5, modulator 0.4 weight percent in spore coating solution, H2O2 exposure 20 sec.
[32] = Table 5, modulator 0.4 weight percent in spore coating solution, H2O2 exposure 30 sec.
[33] = Table 5, modulator 0.4 weight percent in spore coating solution, H2O2 exposure 60 sec.
[34] = Table 5, modulator 0.4 weight percent in spore coating solution, H2O2 exposure 90 sec.
[35] = Table 5, modulator 0.4 weight percent in spore coating solution, H2O2 exposure 3 min.
[36] = Table 5, modulator 0.4 weight percent in spore coating solution, H2O2 exposure 7 min.
[37] = Table 5, modulator 0.8 weight percent in spore coating solution, H2O2 exposure 20 sec.
[38] = Table 5, modulator 0.8 weight percent in spore coating solution, H2O2 exposure 30 sec.
[39] = Table 5, modulator 0.8 weight percent in spore coating solution, H2O2 exposure 60 sec.
[40] = Table 5, modulator 0.8 weight percent in spore coating solution, H2O2 exposure 90 sec.
[41] = Table 5, modulator 0.8 weight percent in spore coating solution, H2O2 exposure 3 min.
[42] = Table 5, modulator 0.8 weight percent in spore coating solution, H2O2 exposure 7 min.

SMILES: N=C(N)NCCC[C@H](N)C(=O)O [L-arginine]
- sensitivity of the biological indicator to the sterilization process relative to the control with no additives ([1]; Example 2 / Comparative Example 1 (Table 4), fluorescence and growth readouts): increased sensitivity (decreased resistance)
- sensitivity of the spores to the damaging/lethal effects of the sterilization process relative to the control with no additives ([1]; Example 3 (Table 5), fluorescence and growth readouts): increased sensitivity
- percentage of self-contained biological indicators positive for growth (GRO+) [1, 3]: 100%
- percentage of self-contained biological indicators positive for growth (GRO+) [1, 4]: 0%
- percentage of self-contained biological indicators positive for growth (GRO+) [1, 5]: 0%
- percentage of self-contained biological indicators positive for growth (GRO+) [1, 6]: 0%
- percentage of self-contained biological indicators positive for growth (GRO+) [1, 7]: 0%
- percentage of self-contained biological indicators positive for growth (GRO+) [1, 8]: 40%
- percentage of self-contained biological indicators positive for growth (GRO+) [1, 9]: 0%
- percentage of self-contained biological indicators positive for growth (GRO+) [1, 10]: 0%
- percentage of self-contained biological indicators positive for growth (GRO+) [1, 11]: 0%
- percentage of self-contained biological indicators positive for growth (GRO+) [1, 12]: 0%
- percentage of self-contained biological indicators positive for growth (GRO+) [1, 13]: 100%
- percentage of self-contained biological indicators positive for growth (GRO+) [1, 14]: 100%
- percentage of self-contained biological indicators positive for growth (GRO+) [1, 15]: 0%
- percentage of self-contained biological indicators positive for growth (GRO+) [1, 16]: 0%
- percentage of self-contained biological indicators positive for growth (GRO+) [1, 17]: 0%
- percentage of self-contained biological indicators positive for growth (GRO+) [1, 18]: 0%
- percentage of self-contained biological indicators positive for growth (GRO+) [1, 19]: 100%
- percentage of self-contained biological indicators positive for growth (GRO+) [1, 20]: 100%
- percentage of self-contained biological indicators positive for growth (GRO+) [1, 21]: 0%
- percentage of self-contained biological indicators positive for growth (GRO+) [1, 22]: 0%
- percentage of self-contained biological indicators positive for growth (GRO+) [1, 23]: 0%
- percentage of self-contained biological indicators positive for growth (GRO+) [1, 24]: 0%
- percentage of self-contained biological indicators positive for growth (GRO+) [1, 25]: 100%
- percentage of self-contained biological indicators positive for growth (GRO+) [1, 26]: 100%
- percentage of self-contained biological indicators positive for growth (GRO+) [1, 27]: 0%
- percentage of self-contained biological indicators positive for growth (GRO+) [1, 28]: 0%
- percentage of self-contained biological indicators positive for growth (GRO+) [1, 29]: 0%
- percentage of self-contained biological indicators positive for growth (GRO+) [1, 30]: 0%
- percentage of self-contained biological indicators positive for growth (GRO+) [1, 31]: 67%
- percentage of self-contained biological indicators positive for growth (GRO+) [1, 32]: 33%
- percentage of self-contained biological indicators positive for growth (GRO+) [1, 33]: 0%
- percentage of self-contained biological indicators positive for growth (GRO+) [1, 34]: 0%
- percentage of self-contained biological indicators positive for growth (GRO+) [1, 35]: 0%
- percentage of self-contained biological indicators positive for growth (GRO+) [1, 36]: 0%
- percentage of self-contained biological indicators positive for growth (GRO+) [1, 37]: 33%
- percentage of self-contained biological indicators positive for growth (GRO+) [1, 38]: 0%
- percentage of self-contained biological indicators positive for growth (GRO+) [1, 39]: 0%
- percentage of self-contained biological indicators positive for growth (GRO+) [1, 40]: 0%
- percentage of self-contained biological indicators positive for growth (GRO+) [1, 41]: 0%
- percentage of self-contained biological indicators positive for growth (GRO+) [1, 42]: 0%
- percentage of self-contained biological indicators positive for glucosidase enzyme activity (ENZ+) [2, 3]: 80%
- percentage of self-contained biological indicators positive for glucosidase enzyme activity (ENZ+) [2, 4]: 60%
- percentage of self-contained biological indicators positive for glucosidase enzyme activity (ENZ+) [2, 5]: 0%
- percentage of self-contained biological indicators positive for glucosidase enzyme activity (ENZ+) [2, 6]: 0%
- percentage of self-contained biological indicators positive for glucosidase enzyme activity (ENZ+) [2, 7]: 0%
- percentage of self-contained biological indicators positive for glucosidase enzyme activity (ENZ+) [2, 8]: 80%
- percentage of self-contained biological indicators positive for glucosidase enzyme activity (ENZ+) [2, 9]: 0%
- percentage of self-contained biological indicators positive for glucosidase enzyme activity (ENZ+) [2, 10]: 0%
- percentage of self-contained biological indicators positive for glucosidase enzyme activity (ENZ+) [2, 11]: 0%
- percentage of self-contained biological indicators positive for glucosidase enzyme activity (ENZ+) [2, 12]: 0%
- percentage of self-contained biological indicators positive for glucosidase enzyme activity (ENZ+) [2, 13]: 100%
- percentage of self-contained biological indicators positive for glucosidase enzyme activity (ENZ+) [2, 14]: 100%
- percentage of self-contained biological indicators positive for glucosidase enzyme activity (ENZ+) [2, 15]: 67%
- percentage of self-contained biological indicators positive for glucosidase enzyme activity (ENZ+) [2, 16]: 0%
- percentage of self-contained biological indicators positive for glucosidase enzyme activity (ENZ+) [2, 17]: 0%
- percentage of self-contained biological indicators positive for glucosidase enzyme activity (ENZ+) [2, 18]: 0%
- percentage of self-contained biological indicators positive for glucosidase enzyme activity (ENZ+) [2, 19]: 100%
- percentage of self-contained biological indicators positive for glucosidase enzyme activity (ENZ+) [2, 20]: 100%
- percentage of self-contained biological indicators positive for glucosidase enzyme activity (ENZ+) [2, 21]: 33%
- percentage of self-contained biological indicators positive for glucosidase enzyme activity (ENZ+) [2, 22]: 0%
- percentage of self-contained biological indicators positive for glucosidase enzyme activity (ENZ+) [2, 23]: 0%
- percentage of self-contained biological indicators positive for glucosidase enzyme activity (ENZ+) [2, 24]: 0%
- percentage of self-contained biological indicators positive for glucosidase enzyme activity (ENZ+) [2, 25]: 100%
- percentage of self-contained biological indicators positive for glucosidase enzyme activity (ENZ+) [2, 26]: 100%
- percentage of self-contained biological indicators positive for glucosidase enzyme activity (ENZ+) [2, 27]: 33%
- percentage of self-contained biological indicators positive for glucosidase enzyme activity (ENZ+) [2, 28]: 0%
- percentage of self-contained biological indicators positive for glucosidase enzyme activity (ENZ+) [2, 29]: 0%
- percentage of self-contained biological indicators positive for glucosidase enzyme activity (ENZ+) [2, 30]: 0%
- percentage of self-contained biological indicators positive for glucosidase enzyme activity (ENZ+) [2, 31]: 100%
- percentage of self-contained biological indicators positive for glucosidase enzyme activity (ENZ+) [2, 32]: 100%
- percentage of self-contained biological indicators positive for glucosidase enzyme activity (ENZ+) [2, 33]: 0%
- percentage of self-contained biological indicators positive for glucosidase enzyme activity (ENZ+) [2, 34]: 0%
- percentage of self-contained biological indicators positive for glucosidase enzyme activity (ENZ+) [2, 35]: 0%
- percentage of self-contained biological indicators positive for glucosidase enzyme activity (ENZ+) [2, 36]: 0%
- percentage of self-contained biological indicators positive for glucosidase enzyme activity (ENZ+) [2, 37]: 100%
- percentage of self-contained biological indicators positive for glucosidase enzyme activity (ENZ+) [2, 38]: 67%
- percentage of self-contained biological indicators positive for glucosidase enzyme activity (ENZ+) [2, 39]: 0%
- percentage of self-contained biological indicators positive for glucosidase enzyme activity (ENZ+) [2, 40]: 0%
- percentage of self-contained biological indicators positive for glucosidase enzyme activity (ENZ+) [2, 41]: 0%
- percentage of self-contained biological indicators positive for glucosidase enzyme activity (ENZ+) [2, 42]: 0%
